In article PMC6127852 (Journal of Enzyme Inhibition and Medicinal Chemistry, 2018):
≈ marks a conversion by molar mass, not a printed value.

What was measured:
calf thymus ctDNA = experiment: UV–Vis titration with ctDNA (Scatchard); format: binding; settings: PBS, pH 7; for Hypochromic effect H/%, ctDNA: UV–Vis titration, calculated by Scatchard equation; for log Ks, ctDNA: binding constant, Scatchard
Method: (§1) Polynucleotides were purchased as follows: polyG–polyC, polyA–polyU (Sigma-Aldrich, St. Louis, MO), calf thymus ctDNA (Aldrich). Polynucleotides were dissolved in PBS buffer, I = 0.05 mol dm^−3, pH 7.0. The calf thymus ctDNA was additionally sonicated and filtered through a […] filter. The polynucleotide concentration was spectroscopically determined as the concentration of nucleobases.
(§2) All UV–Vis absorbance measurements were conducted on a Perkin Elmer Lambda 25 spectrophotometer (Perkin Elmer, Waltham, MA). A quartz cell with a 1 cm path length was used for all absorbance studies. Compound stock solutions were 1 mM. The DNA/RNA at increasing ratios was then titrated into the compound buffer solution (1.48 × 10^−5 mol dm^−3) and the corresponding absorption spectra were recorded under the same conditions. All data were graphed and analysed using Origin software version 9.0 (OriginLab Corporation, Northampton, MA). The stability constants (Ks) and [bound compound]/[polynucleotide phosphate] ratios (n) were calculated according to the Scatchard Equation[63] ^, [64]. Values for Ks and n given in Table 1 all have satisfying correlation coefficients (0.99).
(§3) The binding constants logKs and the density of the binding sites n were calculated using Scatchard plot analysis. In addition, the binding constants Ks for compounds 8b and 8e were calculated only for titration data taken at the r ≥ 0.1, because below that ratio changes in absorption maxima were too small for accurate calculation (ΔA ≤ 0.04) (Table 1). The binding constants Ks and ratios n obtained by processing UV–Vis titration data using the Scatchard equation are summarised in Table 1.

polyA-polyU [1] = experiment: UV–Vis titration with polyA-polyU (Scatchard); format: binding; settings: for Hypochromic effect H/%, polyA-polyU: UV–Vis titration, calculated by Scatchard equation; for Hypochromic effect H/%, polyA-polyU / log Ks, polyA-polyU: PBS, pH 7; for log Ks, polyA-polyU: binding constant, Scatchard
Method: as §1, §2, §3

polyC-polyG = experiment: UV–Vis titration with polyC-polyG (Scatchard); format: binding; settings: PBS, pH 7; for Hypochromic effect H/%, polyC-polyG: UV–Vis titration, calculated by Scatchard equation; for log Ks, polyC-polyG: binding constant, Scatchard
Method: as §1, §2, §3

ctDNA = experiment: Thermal melting (ΔTm) of ctDNA; format: binding, calf; settings: PBS, pH 7; for ΔTm, ctDNA, r = 0.3: r = [compound]/[polynucleotide] 0.3, error ±0.5 °C
Method: (§4) T m experiments were conducted with a Perkin Elmer Lambda 25 spectrophotometer in 1 cm quartz cuvettes. The absorbance of the DNA/RNA-compound complex was monitored at 260 nm as a function of temperature. The absorbance of the ligands was subtracted from every curve, and the absorbance scale was normalised. The ΔT m values were calculated by subtracting T m of the free nucleic acid from T m of the complex. Every reported ΔT m value was the average of at least two measurements. The error of ΔT m is ±0.5 °C. All data were graphed and analysed using Origin software version 9.0.
(§5) Denaturation experiments were carried out at different amounts of the compounds (r = 0.1, 0.3, 0.5, and 0.7 eq; r = [compound]/[polynucleotide]) with ctDNA and polyA-polyU.

polyA-polyU [2] = experiment: Thermal melting (ΔTm) of polyA-polyU; format: binding; settings: for ΔTm, polyA-polyU, r = 0.1: PBS, pH 7; for ΔTm, polyA-polyU, r = 0.3 / ΔTm, polyA-polyU, r = 0.5: first melting midpoint
Method: as §4, §5

S. aureus MRSA = experiment: Broth microdilution MIC, MRSA clinical strain; format: cell-based; settings: Staphylococcus aureus, antibiotic-resistant clinical strain
Method: (§6) The compounds were evaluated for their in vitro anti-bacterial activity against Gram-positive bacteria: S. aureus (ATCC 25923), MRSA, methicillin-sensitive S. aureus (MSSA), E. faecalis, vancomycin-resistant E. faecium (VREF), and Gram-negative bacteria: E. coli (ATCC 25925), P. aeruginosa (ATCC 27853), A. baumannii (ATCC 19606) and ESBL-producing K. pneumoniae (ATCC 27736). Standard broth microdilution method as recommended in guidelines of Clinical and Laboratory Standards Institute[61] ^, [65] ^, [66] was applied and the minimum inhibitory concentration (MIC) of compounds was tested. In short, testing was performed in U-bottomed 96-well sterile plastic microdilution trays (Falcon 3077, Becton Dickinson Labware, Franklin Lakes, NJ) in cation (Ca^2+ and Mg^2+) adjusted Mueller–Hinton broth medium (Becton Dickinson and Co., Cockeysville, MD). All testings were performed in triplicate.

S. aureus MSSA = experiment: Broth microdilution MIC, MSSA clinical strain; format: cell-based; settings: Staphylococcus aureus
Method: as §6

E. faecium VRE = experiment: Broth microdilution MIC, VRE clinical strain; format: cell-based; settings: Enterococcus faecium
Method: as §6

S. aureus ATCC 25923 = experiment: Broth microdilution MIC, S. aureus ATCC 25923; format: cell-based; settings: Staphylococcus aureus, ATCC25923; Table S2
Method: as §6
(§7) The in vitro anti-bacterial activity of 5-amidinobenzimidazoles 7a–7e, 8a–8e, and 9a–9e was tested against Gram-positive bacteria including S. aureus (ATCC 25923), Enterococcus faecalis (ATCC 29212), and Gram-negative bacteria including E. coli (ATCC 25925), K. pneumoniae (ATCC 700803), P. aeruginosa (ATCC 27853), and Acinetobacter baumannii (ATCC 19606).

E. faecalis ATCC 29212 = experiment: Broth microdilution MIC, E. faecalis ATCC 29212; format: cell-based; settings: Enterococcus faecalis, ATCC29212; Table S2
Method: as §6, §7

E. coli ATCC 25925 = experiment: Broth microdilution MIC, E. coli ATCC 25925; format: cell-based; settings: Escherichia coli, ATCC25925; Table S2
Method: as §6, §7

K. pneumonia ATCC 700803 = experiment: Broth microdilution MIC, K. pneumoniae ATCC 700803; format: cell-based; settings: Klebsiella pneumoniae, ATCC700803; Table S2
Method: as §6, §7

P. aeruginosa ATCC 27853 = experiment: Broth microdilution MIC, P. aeruginosa ATCC 27853; format: cell-based; settings: Pseudomonas aeruginosa, ATCC27853; Table S2
Method: as §6, §7

A. baumannii ATCC 19606 = experiment: Broth microdilution MIC, A. baumannii ATCC 19606; format: cell-based; settings: Acinetobacter baumannii, ATCC19606; Table S2
Method: as §6, §7

[3] = tested on: bloodstream form T. brucei (strain 221); experiment: Anti-trypanosomal screening, resazurin; format: cell-based; settings: Trypanosoma brucei, mean of triplicate ± SEM
Method: Bloodstream form T. brucei (strain 221) were cultured in modified Iscove’s medium, as outlined[67] and trypanocidal assays were performed using 96-well microtitre plates. […] Resazurin was added after 48 h, the plates incubated for a further 16 h, and then read in a Spectramax plate reader (Molecular Devices Corporation, San Jose, CA). The data were analysed using GraphPad Prism (GraphPad, La Jolla, CA). Each drug concentration was tested in triplicate.

[4] = tested on: polyA-polyU (RNA, polymer) A/U; experiment: UV melting at 260 nm; settings: PBS, I = 0.05 M, cations not specified, pH 7, r = 0.3 [compound]/[polynucleotide]
[5] = tested on: polyA-polyU (RNA, polymer) A/U; experiment: UV-Vis titration, Scatchard; settings: PBS, I = 0.05 M (Table 1 says I = 0.015 M), cations not specified, I = 0.015 M (Methods: 0.05 M)
[6] = tested on: polyG-polyC (polyC-polyG) (RNA, polymer) G/C; experiment: UV-Vis titration, Scatchard; settings: PBS; for log Ks: I = 0.05 M (Table 1 says I = 0.015 M), cations not specified, I = 0.015 M (Methods: 0.05 M), pH 7, per base
E. coli ESBL = experiment: Broth microdilution MIC, ESBL E. coli clinical strain; format: cell-based; settings: Escherichia coli
P. aeruginosa ESBL = experiment: Broth microdilution MIC, ESBL P. aeruginosa clinical strain; format: cell-based; settings: Pseudomonas aeruginosa
[7] = footnote c: biphasic melting curve

Compound | Hypochromic effect H/%, ctDNA (calf thymus ctDNA) [%] | log Ks, ctDNA (calf thymus ctDNA) | Hypochromic effect H/%, polyA-polyU (polyA-polyU [1]) [%] | log Ks, polyA-polyU (polyA-polyU [1]) | Hypochromic effect H/%, polyC-polyG (polyC-polyG) [%] | ΔTm, ctDNA, r = 0.5 (ctDNA) [°C] | ΔTm, ctDNA, r = 0.7 (ctDNA) [°C] | ΔTm, ctDNA, r = 0.3 (ctDNA) [°C] | ΔTm, polyA-polyU, r = 0.1 (polyA-polyU [2]) [°C] | ΔTm, polyA-polyU, r = 0.3 (polyA-polyU [2]) [°C] | MIC (S. aureus MRSA) [µg/mL] | MIC (S. aureus MSSA) [µg/mL] | MIC (E. faecium VRE) [µg/mL] | MIC (S. aureus ATCC 25923) [µg/mL] | MIC (E. faecalis ATCC 29212) [µg/mL] | MIC (E. coli ATCC 25925) [µg/mL] | MIC (K. pneumonia ATCC 700803) [µg/mL] | MIC (P. aeruginosa ATCC 27853) [µg/mL] | MIC (A. baumannii ATCC 19606) [µg/mL] | IC50 [3] [µM] | other results
Cl.Cl.Clc1ccccc1-n1cc(COc2ccc(-c3nc4cc(C5=NCCN5)ccc4[nH]3)cc2)nn1 [Compound 9c, 5–(4,5-Dihydro-1H-imidazol-2-yl)-2–(4-((1–(2-chlorophenyl)-1H-1,2,3-triazol-4-yl)methoxy)phenyl)-1H-benz[d]imidazole dihydrochloride] | 11.7 | 6.43 | 29.3 | 5.38 | 5.34 | 3.31 | 3.80 | 3.55 | 2.85 | 4.27 | 8 | 128 | 64 | 128 | 32 | 256 | > 256 | > 256 | > 256 | > 15 | log Ks, polyC-polyG (polyC-polyG): 6.43; ΔTm, polyA-polyU, r = 0.3, second melting midpoint (polyA-polyU [2]; [7]): 13.99 °C; melting point: 194 to 196 °C; ΔTm ([4]; error ±0.5, biphasic, second midpoint 13.99, per base): 4.27 °C; log Ks ([5]; pH 7, per base): 5.38; log Ks [6]: 6.43
c1ccc(Cn2cc(COc3ccc(-c4nc5cc(C6=NCCN6)ccc5[nH]4)cc3)nn2)cc1 [Compound 9d] | 24.6 | 5.84 |  | 5.89 | 5.89 | 3.52 | 2.60 | 3.31 | 1.26 | 1.42 | 64 (≈ 142 µM) | 64 (≈ 142 µM) | 64 (≈ 142 µM) | 64 (≈ 142 µM) | 128 (≈ 285 µM) | 128 (≈ 285 µM) | > 256 | 128 (≈ 285 µM) | > 256 | 10.8 ± 0.4 | Hypochromic effect H/%, polyA-polyU (from experimental data) (polyA-polyU [1]; footnote e: calculated from experimental data): 55.5 ^e %; log Ks, polyC-polyG (polyC-polyG): 6.59; ΔTm, polyA-polyU, r = 0.3, second melting midpoint (polyA-polyU [2]; [7]): 10.30^c °C; ΔTm, polyA-polyU, r = 0.5 (polyA-polyU [2]; r = 0.5): 2.06 °C; ΔTm, polyA-polyU, r = 0.5, second melting midpoint (polyA-polyU [2]; r = 0.5, footnote c: biphasic melting curve): 13.29^c °C; MIC (E. coli ESBL): 128 µg/mL (≈ 285 µM); MIC (P. aeruginosa ESBL): 128 µg/mL (≈ 285 µM); IC90 [3]: > 25 µM; ΔTm ([4]; error ±0.5, biphasic, second midpoint 10.30, per base): 1.42 °C; log Ks ([5]; pH 7, n fixed, per base): 5.89; log Ks [6]: 6.59
CC(C)NC(=N)c1ccc2[nH]c(-c3ccc(OCc4cn(-c5ccccc5Cl)nn4)cc3)nc2c1.Cl.Cl [Compound 8c, N-isopropyl-2–(4-((1–(2-chlorophenyl)-1H-1,2,3-triazol-4-yl)methoxy)phenyl)-1H-benz[d]imidazole-5-carboximidamide dihydrochloride] | 33.8 | 5.64 | 50.4 | 6.00 | 5.31 | 3.89 | 4.39 | 3.40 | 0.76 | 0.58 | 8 | 16 | 32 | 32 | 64 | 256 | > 256 | > 256 | > 256 | > 15 | log Ks, polyC-polyG (polyC-polyG): 6.43; ΔTm, polyA-polyU, r = 0.5 (polyA-polyU [2]; r = 0.5): 1.12 °C; melting point: 210 to 213 °C; log Ks ([5]; pH 7, per base): 6.00; log Ks [6]: 6.43
Cl.Cl.N=C(N)c1ccc2[nH]c(-c3ccc(OCc4cn(-c5ccccc5Cl)nn4)cc3)nc2c1 [Compound 7c, 2–(4-((1–(2-Chlorophenyl)-1H-1,2,3-triazol-4-yl)methoxy)phenyl)-1H-benz[d]imidazole-5-carboximidamide dihydrochloride] | 36.3 | 6.24 | 38.9 | 5.21 |  | 3.20 | 3.77 | 2.35 | 0.20 | 2.72 | 16 | 32 | 256 | 64 | 64 | 256 | > 256 | > 256 | > 256 | > 15 | melting point: 176 to 177 °C; ΔTm ([4]; error ±0.5, per base): 2.72 °C; log Ks ([5]; pH 7, per base): 5.21; binding ([6]; pH 7, changes too small for accurate calculation, compound 14.8 µM): weak
